In patent US12029731B2, “Acyl benzo[d]thiazol-2-amine and their methods of use” (Biohaven Pharmaceutical Holding Company Ltd., priority 2016, dated 2024):
“Also recorded” adds a separate entry of the source.

Key:
[1] = tested on: Stage III and IV melanoma; assay: Phase 0 human clinical trial of riluzole in melanoma patients; format: in vivo; details: after only 14 days of treatment
From the text: We have recently shown that riluzole has dramatic anti-melanoma activity in vitro cellular assays, in mice and in a Phase 0 human clinical trial. […] However, the therapeutic utility of riluzole itself in ALS and eventually for melanoma is very constrained by rapid first-pass metabolism in the liver and an exceptionally high level of patient-to-patient variability in the extent of the Cyp1A2-mediated oxidative metabolism that is observed.

C8161 cells [2] = details: C8161 human melanoma cells; cited from earlier work
C8161 cells [3] = details: positive control, in comparison with no treatment and DMSO treated; cited from earlier work

Nc1nc2ccc(OC(F)(F)F)cc2s1 [riluzole]
patients with clinical or radiologic evidence of tumor response [1]: four of 12; also recorded: four of twelve | effect on excess cellular glutamate (C8161 cells [2]): inhibits excess cellular gluatamate | C8161 cell growth (C8161 cells [3]): dose-dependent suppression
